Values of other authors, collected in US20050107870A1, “Medical device with multiple coating layers” (priority 2003, published 2005).
Structures can show the parent of a compound that is named as a salt. Values belong to the molecule of their own block, whether it stands above or below them.

Experiments:
[1] = hydrophilic magnetically responsive microspheres
cancer cells = settings: exposed to low-level electromagnetic fields present in some North American homes

incorporated concentration of therapeutic agent in microspheres [1]: up to 50 wt %
SMILES: COc1cccc2c1C(=O)c1c(O)c3c(c(O)c1C2=O)C[C@@](O)(C(=O)CO)C[C@@H]3O[C@H]1C[C@H](N)[C@H](O)[C@H](C)O1 [adriamycin, doxorubicin hydrochloride]

SMILES: COc1ccc2[nH]cc(CCNC(C)=O)c2c1 [melatonin]
growth of breast cancer cells (breast cancer cells; cells exposed to 2 milligauss magnetic fields): inhibit the growth of breast cancer cells
growth-inhibiting activity on breast cancer cells (breast cancer cells; cells in a 12 milliGauss field): essentially reased

SMILES: CC/C(=C(\c1ccccc1)c1ccc(OCCN(C)C)cc1)c1ccccc1 [tamoxifen]
ability to halt the proliferation of cancer cells (cancer cells): lost its ability to halt the proliferation of cancer cells
